Data: patent US20150018411A1, “COMPOUNDS AS PPAR BETA/DELTA INHIBITORS FOR TREATING PPAR BETA/DELTA-MEDIATED DISEASES” (PHILIPPS-UNIVERSITAT MARBURG, priority 2011, published 2015)
Entries after “also recorded” stand apart in the source; their conditions may differ.

What was measured:
GST-PPAR beta/delta LBD = biological target: T1, GST-PPAR beta/delta LBD (Homo sapiens, UniProt Q03181); assay: Competitive in vitro ligand binding, TR-FRET, displacement of Fluormone Pan-PPAR-Green; details: fluorescence ratio 520 nm/495 nm
T1 construct: GST-PPAR beta/delta LBD (GST=glutathione S-transferase); purchased Invitrogen, Darmstadt, Germany
T1 sequence (Q03181 211-439 limits assumed): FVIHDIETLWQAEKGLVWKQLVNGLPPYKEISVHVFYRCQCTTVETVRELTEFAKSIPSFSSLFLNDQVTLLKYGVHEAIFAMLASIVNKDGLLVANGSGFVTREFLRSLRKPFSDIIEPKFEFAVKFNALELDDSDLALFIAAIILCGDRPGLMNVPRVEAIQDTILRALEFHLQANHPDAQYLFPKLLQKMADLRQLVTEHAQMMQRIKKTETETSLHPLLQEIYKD
Protocol: FIG. 1: Competitive in vitro ligand binding to PPAR beta/delta. • The displacement of ligand Fluormone® Pan-PPAR Green from recombinant GST-PPAR beta/delta ligand binding domain (LBD) by the substances of the present invention comparative compound (CC) 2, compound 1 (A), compound 2 (B), and compound 3 (C), compound 4 (D), compound 5 (E) is determined by TR-FRET analysis. Shown is the ratio of fluorescence intensity at 520 nm (fluorescein emission, excited by terbium emission) and 495 nm (terbium emission). All data points represent average values of triplicates (+/−standard deviation).
A) Competitive ligand-binding of the substances of this invention was measured in vitro using time-resolved fluorescence resonance energy transfer (TR-FRET) by competition with the commercially available fluorescent Fluormone® Pan-PPAR-Green for binding to the fusion protein GST-PPAR beta/delta LBD (GST=glutathione S-transferase; LBD=ligand binding domain) (Invitrogen, Darmstadt, Germany) in a VICTOR3V Multilabel Counter (WALLAC 1420; PerkinElmer Life and Analytical Sciences, Rodgau, Germany). The measurement was performed in 100 mM KC, 20 mM Tris pH 7.9, 0.01% Triton X100 and 1 μg/μL bovine serum albumin. GST is known to the expert in the field as suitable fusion partner for proteins. For this purpose, the ratio of fluorescence intensities at 520 nm (fluorescein emission excited by terbium emission) and at 495 nm (terbium emission) is determined.

PPAR beta/delta = biological target: T2, PPAR beta/delta (Homo sapiens, UniProt Q03181); assay: Agonist-induced transcriptional activity, luciferase reporter in WPMY-1 cells; type: cell-based; details: human WPMY-1 myofibroblasts, 500 nM substance, 500 nM agonist L165041
T2 construct: expressed in transfected cells; host or cells: WPMY-1 human myofibroblasts, transient transfection with PEI
T2 sequence (Q03181 1-441): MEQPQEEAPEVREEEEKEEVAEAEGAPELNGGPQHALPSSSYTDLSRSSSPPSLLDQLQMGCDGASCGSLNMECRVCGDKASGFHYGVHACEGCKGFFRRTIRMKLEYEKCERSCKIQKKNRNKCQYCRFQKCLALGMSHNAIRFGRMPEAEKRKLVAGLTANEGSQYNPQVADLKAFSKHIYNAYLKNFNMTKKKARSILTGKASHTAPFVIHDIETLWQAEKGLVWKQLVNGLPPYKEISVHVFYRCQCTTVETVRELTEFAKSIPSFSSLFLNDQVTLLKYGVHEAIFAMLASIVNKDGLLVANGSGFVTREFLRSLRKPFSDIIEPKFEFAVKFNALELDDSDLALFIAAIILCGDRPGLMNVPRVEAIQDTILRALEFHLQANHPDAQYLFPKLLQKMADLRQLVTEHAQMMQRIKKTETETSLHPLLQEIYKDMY
Protocol: FIG. 4: Effect of the substances of this invention comparative compound (CC) 2, compound 1, compound 5, compound 2 and compound 3 on the agonist-induced transcriptional activity of PPAR subtypes alpha (A), beta/delta (B) and gamma (C). • WPMY-1 cells are transiently transfected with a luciferase reporter plasmid. Four hours after transfection, cells are treated for 48 hours with the respective antagonist (500 nM), followed by a treatment with 300 nM of PPAR alpha agonist GW7647 (A), 500 nM of PPAR beta/delta agonist L165041 (B) or 300 nM of PPAR gamma agonist GW1929 (C). The relative induction is represented by the luciferase activity of the agonist-treated transfected cells in relation to solvent-treated transfected cells. Asterisks (**, *) indicate significant differences to untreated cells (after t-test; **: p<0.01; *: p<0.05). GW7647 is commercially available from Sigma-Aldrich (Steinheim, Germany). L165041 and GW1929 can be obtained from Biozol (Eching, Germany).
D) The influence of substances of this invention on the agonist-induced transcriptional activity of PPAR subtypes alpha, beta/delta or gamma is determined in WPMY-1 myofibroblasts transfected transiently with a luciferase reporter plasmid (LexA system) using polyethyleneimine (PEI) according to a method known to the expert. As agonists, substances GW7647 for PPAR alpha or L165041 for PPAR beta/delta or GW1929 for PPAR gamma known to the expert are used. WPMY-1 myofibroblast cells are initially cultured for example in a 12-well plate in DMEM medium (DMEM: Dulbecco's Modified Eagle Medium) according to a method known to the expert and to a confluence of 70% to 80%, and subsequently transfected with 2.5 μg of plasmid-DNA containing the luciferase reporter plasmid, expression plasmids for the respective PPAR subtypes and the Renilla-luciferase plasmid pRL-SV40 (Promega, Mannheim, Germany), and 2.5 μl PEI (1:1000 dilution, pH 7). Four hours after transfection, the cells are treated for 48 hours with 500 nM of the substances of this invention, and 24 later with 300 nM (GW7647 or GW1929, respectively) or 500 nM (L165041) of the respective agonist at 37° C. and 5% CO2 in an incubator. The luciferase assay is performed 48 hours after the first treatment according to the commercial method of the “dual-well-system” (pjk GmbH, Kleinblittersdorf, Germany), whereby for a normalization, not only the luciferase-, but also the Renilla activity is measured. Cells are initially lysed for this measurement, and 20 μl of the lysate is transferred into a white 96-well plate (Fisher Scientific, Hamburg, Germany). […] Mean values and standard deviation are calculated from values of three independent measurements.

Compound	competition with Fluormone Pan-PPAR-Green for binding to GST-PPAR beta/delta LBD (GST-PPAR beta/delta LBD)	agonist-induced transcriptional activity of PPAR beta/delta (luciferase induction) (PPAR beta/delta)
CCCCCCNc1ccc(NS(=O)(=O)c2ccsc2C(=O)OC)c(OC)c1 [compound 1, methyl 3-(N-(4-(hexylamino)-2-methoxyphenyl)sulfamoyl)thiophene-2-carboxylate]	significant competition efficacy; also recorded: significant competition efficiency	inhibited in a PPAR subtype-specific manner
CCCCCCNc1ccc(NS(=O)(=O)c2ccsc2C(=O)OC)cc1OC [compound 2, methyl 3-(N-(4-(hexylamino)-3-methoxyphenyl)sulfamoyl)thiophene-2-carboxylate]	significant competition efficacy; also recorded: significant competition efficiency	inhibited in a PPAR subtype-specific manner
COC(=O)c1sccc1S(=O)(=O)Nc1ccc(NC(C)(C)C)cc1OC [compound 5, methyl 3-(N-(4-(tert-butylamino)-2-methoxyphenyl)sulfamoyl)thiophene-2-carboxylate]	significant competition efficacy; also recorded: significant competition efficiency	inhibited in a PPAR subtype-specific manner
